# Results: US10745401B2, “Condensed lactam derivative” (Sumitomo Dainippon Pharma Co., Ltd., priority 2018, dated 2020)
# Key:
# human 5-HT1A receptor [1] = target: T1, human 5-HT1A receptor (Homo sapiens (Human), UniProt P08908); test: Test 1: binding activity for human 5-HT1A receptor ([3H]8-OH-DPAT, CHO cell membrane fraction)
# How it was run: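 Membranes incubated with [3H]8-OH-DPAT and compound for 60 min at room temperature, then filtered on polyethylenimine-coated glass-fibre plates and counted by liquid scintillation. IC50 from Hill analysis; Ki = IC50/(1+S/Kd), Kd from saturation binding on the same membranes.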
# [2] = Test 10: intracerebral transferability of rats (Kp,uu,brain); type: in vivo, rat; conditions: unbound drug concentration ratio brain/plasma
# Procedure: Test 10: Evaluation of Intracerebral Transferability (Test for Intracerebral Transferability of Rats)
# In this test, intracerebral transferability of the present compounds was evaluated by the following method. The present compounds were subcutaneously administered as a solution in saline, or orally administered as a suspension in methyl cellulose to 7-week-old SD or WKY rats. Plasma and brain were collected on 0.5 hours, 1 hour, or 2 hours after the administration to measure the drug concentrations in plasma and brain by LC-MS.
# Binding rates of the present compound to plasma and brain protein were measured by equilibrium dialysis method.
# Kp,uu,brain (unbound drug concentration ratio between brain/plasma) can be calculated by applying the compound concentrations in plasma and brain and the binding rates to plasma and brain protein obtained from the above test into the following formula. Kp,uu,brain=(Compound concentration in brain×(100−Binding rate to brain protein (%))/100)/(Compound concentration in plasma×(100−Binding rate to plasma protein (%))/100)
# human D2 receptor = human D2 receptor (Homo sapiens (Human), UniProt P14416); test: Test 1: binding activity for human D2 receptor ([3H]Spiperone, CHO cell membrane fraction); conditions: for Ki: human D2 receptor, [3H]Spiperone; for D2 Ki/5-HT1A Ki / D2 Ki/5-HT2A Ki: selectivity ratio
# How it was run: (§1)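 CHO-cell membranes with [3H]ketanserin (5-HT2A) or [3H]spiperone (D2) were incubated with compound for 60 min at room temperature, then filtered, and bound radioactivity was counted by scintillation. Ki = IC50/(1+S/Kd), with ligand Kd from saturation binding on the same membranes.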
# hERG channel [3] = target: T2, hERG channel (Homo sapiens (Human), UniProt Q12809); test: Test 6-1: inhibitory activity for hERG channel (auto patch clamp, Qpatch); type: cell-based; conditions: for IC50: whole cell auto patch clamp, hERG-CHO cells, read-out: hERG inhibition IC50; for hERG inhibition IC50 (nmol/L)/5-HT1A Ki (nmol/L): ratio of hERG IC50 to 5-HT1A Ki; for hERG inhibition IC50 (nmol/L)/5-HT2A Ki (nmol/L): ratio of hERG IC50 to 5-HT2A Ki
# How it was run: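 Whole-cell patch clamp on an automated system using CHO cells stably expressing human hERG (IKr); 15 s pulse interval. Four increasing compound concentrations applied cumulatively; mean peak tail current from last 3 stimulations per concentration used. IC50 from inhibition versus pre-compound current, fitted by Hill equation.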
# [4] = Test 4: metabolic stability test in human hepatic microsome; type: in vitro ADME; conditions: 0.1 mg/mL microsome, 0.1 μmol/L compound, 37° C., 30 minutes
# How it was run: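 Compound at 0.1 μmol/L incubated 30 min at 37° C with human liver microsomes (0.1 mg/mL) and NADPH (3.2 mmol/L) in 25 mmol/L phosphate buffer, pH 7.4. Residual compound measured by LC-MS; stability (mL/min/mg protein) = −LN(residual ratio)/30/0.1.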
# human 5-HT1A receptor [5] = target: T1, human 5-HT1A receptor; test: Test 2: agonist activity for human 5-HT1A receptor ([35S]GTPγS binding); type: biochemical; conditions: for EC50: [35S]GTPγS binding, concentration at which half the activity of Emax was obtained; for Emax at 10 µM: agonist activity in the presence of 10 μM of compound, relative to 100 μmol/L 5-HT
# How it was run: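 Membranes from CHO cells expressing human 5-HT1A incubated with compound, GDP-containing buffer and [35S]GTPγS for 60 min at room temperature. Bound radioactivity collected by glass-fibre filtration and counted by liquid scintillation; agonist activity derived from a formula.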
# [6] = Test 5: predictive test of human half-life (monkey distribution volume, serum unbound fraction, microsomal stability); type: in vivo; conditions: predicted from cynomolgus monkey distribution volume (i.v.), serum unbound fraction and human hepatic microsome stability
# Procedure: Test 5: Predictive Test of Human Half-Life
# The present compound was intravenously administered to cynomolgus monkey as an aqueous solution in 0.01 mol/L hydrochloric acid. Blood was collected on 5 minutes, 15 minutes, 30 minutes, 1 hour, 2 hours, 4 hours, 6 hours, and 24 hours after the administration. Plasma was obtained from the collected blood, the drug concentration in the plasma was measured by LC-MS, and the distribution volume of monkey was calculated from the transition of the concentration.
# The unbound fraction rate of the present compound in human or monkey serum was measured by equilibrium dialysis method.
# The half-life in human was calculated according to the following formula using the results of the distribution volume of monkey, the unbound fraction rate in human or monkey serum, and the metabolic stability in human hepatic microsome obtained in Test 3.
# human 5-HT2A receptor [7] = target: T3, human 5-HT2A receptor (Homo sapiens (Human), UniProt P28223); test: Test 3: antagonist activity for human 5-HT2A receptor (aequorin luminescence, CHO-K1 cells); type: cell-based; conditions: CHO-K1 cells, 1 nmol/L 5-HT
# How it was run: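 CHO-K1 cells transiently co-expressing aequorin, Gα16 and receptor; compound in DMSO added and luminescence recorded on FDSS/μCELL.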
# human 5-HT2A receptor [8] = target: T3, human 5-HT2A receptor; test: Test 1: binding activity for human 5-HT2A receptor ([3H]Ketanserin, CHO cell membrane fraction)
# How it was run: as §1
# P-gp (MDR1) = P-gp (MDR1) (Homo sapiens (Human), UniProt P08183); test: Test 9: P-gp substrate property (NFR, MDCKII and MDR1-MDCKII cells); type: in vitro ADME; conditions: Net Flux Ratio, MDR1-MDCKII vs MDCKII cells
# Procedure: […]
# NFR (Net Flux Ratio), which is an index of P-gp substrate property, can be calculated as follows. MDCKII (Madin-Darby canine kidney strain II) cells and MDR1-MDCKII cells in which MDR1 (multidrug resistance protein 1) was overexpressed were used to measure an apparent permeability coefficient (Papp A-B) from lumen (A) to basement membrane (B) and an apparent permeability coefficient (Papp B-A) from basement membrane (B) to lumen (A) of both MDCKII cells and MDR1-MDCKII cells. NFR (Net Flux Ratio) was calculated from the ratio between Ratio (Papp B-A/Papp A-B) of an apparent permeability coefficient of MDR1-MDCKII cells and Ratio of an apparent permeability coefficient of MDCKII cells.
# hERG channel [9] = target: T2, hERG channel; test: Test 6-2: inhibitory activity for hERG channel (auto patch clamp, Qube); type: cell-based; conditions: Test 6-2, hERG-CHO cells, whole cell patch clamp; read-out: hERG inhibition IC50
# Procedure: Extracellular fluid: 2 mmol/L CaCl2, 1 mmol/L MgCl2, 10 mmol/L HEPES, 4 mmol/L KCl, 145 mmol/L NaCl, 10 mmol/L Glucose
# (Measurement of Current Value and Data Analysis)
# The cell suspension, the extracellular fluid, the intracellular fluid, and the measurement plate were set in the auto patch clamp system, and hERG current was measured by whole cell patch clamp method. […] Each pulse interval was 15 seconds. […] The test was carried out by applying incrementally 4 concentrations of each test compound, and the average of the maximum peak tail currents which were obtained from the last 3 stimulations in each concentration was determined as the evaluated data. Based on the current inhibition rate for a pre-applied current at each concentration of each test compound, IC50 value was calculated by Hill equation with the software.
# Sequence of human D2 receptor (P14416 whole entry): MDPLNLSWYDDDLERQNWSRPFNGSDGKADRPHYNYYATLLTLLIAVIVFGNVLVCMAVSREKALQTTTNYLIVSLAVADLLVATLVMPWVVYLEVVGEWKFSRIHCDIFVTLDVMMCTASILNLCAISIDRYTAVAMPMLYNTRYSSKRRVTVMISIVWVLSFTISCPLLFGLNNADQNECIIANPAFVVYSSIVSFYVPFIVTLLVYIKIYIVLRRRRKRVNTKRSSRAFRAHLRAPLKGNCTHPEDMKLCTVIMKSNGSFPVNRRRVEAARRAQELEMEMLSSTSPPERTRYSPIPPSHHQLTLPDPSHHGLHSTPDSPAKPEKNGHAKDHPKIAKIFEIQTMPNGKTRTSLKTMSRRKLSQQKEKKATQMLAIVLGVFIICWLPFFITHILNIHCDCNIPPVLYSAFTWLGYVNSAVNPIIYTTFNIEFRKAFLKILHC
# Sequence of P-gp (MDR1) (P08183 whole entry, species assumed): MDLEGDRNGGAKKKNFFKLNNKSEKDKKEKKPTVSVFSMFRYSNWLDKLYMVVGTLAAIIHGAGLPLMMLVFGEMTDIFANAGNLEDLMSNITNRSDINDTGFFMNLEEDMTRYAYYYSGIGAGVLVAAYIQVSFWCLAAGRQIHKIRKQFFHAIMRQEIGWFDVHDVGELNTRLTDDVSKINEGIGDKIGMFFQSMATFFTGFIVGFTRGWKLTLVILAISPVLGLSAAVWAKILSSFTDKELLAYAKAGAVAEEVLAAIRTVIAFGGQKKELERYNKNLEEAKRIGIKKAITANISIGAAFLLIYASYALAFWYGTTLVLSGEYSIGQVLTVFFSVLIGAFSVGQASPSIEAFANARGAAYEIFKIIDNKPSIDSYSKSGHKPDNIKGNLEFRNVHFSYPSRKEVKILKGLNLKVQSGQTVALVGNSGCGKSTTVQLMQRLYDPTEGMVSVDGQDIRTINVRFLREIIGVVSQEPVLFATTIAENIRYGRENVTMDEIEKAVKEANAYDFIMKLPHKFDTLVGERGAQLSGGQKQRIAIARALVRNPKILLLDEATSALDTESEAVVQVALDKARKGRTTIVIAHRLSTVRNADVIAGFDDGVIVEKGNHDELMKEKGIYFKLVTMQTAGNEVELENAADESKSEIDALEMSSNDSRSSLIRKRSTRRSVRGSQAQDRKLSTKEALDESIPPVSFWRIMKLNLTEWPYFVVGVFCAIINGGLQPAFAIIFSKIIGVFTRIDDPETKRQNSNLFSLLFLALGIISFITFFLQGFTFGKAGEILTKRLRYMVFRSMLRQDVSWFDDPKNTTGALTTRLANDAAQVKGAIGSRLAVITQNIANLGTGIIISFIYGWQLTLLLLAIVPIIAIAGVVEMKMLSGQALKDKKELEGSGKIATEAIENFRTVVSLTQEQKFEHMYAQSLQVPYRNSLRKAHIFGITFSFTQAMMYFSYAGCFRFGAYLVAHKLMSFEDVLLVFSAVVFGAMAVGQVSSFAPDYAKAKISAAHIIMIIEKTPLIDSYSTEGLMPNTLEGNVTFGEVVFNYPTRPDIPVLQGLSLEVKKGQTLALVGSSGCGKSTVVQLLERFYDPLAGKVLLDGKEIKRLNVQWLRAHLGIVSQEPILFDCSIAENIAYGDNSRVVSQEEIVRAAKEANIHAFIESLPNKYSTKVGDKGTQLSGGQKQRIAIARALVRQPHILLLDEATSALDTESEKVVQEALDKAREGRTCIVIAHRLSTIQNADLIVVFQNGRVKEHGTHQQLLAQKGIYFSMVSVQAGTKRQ
# T2 sequence (Q12809 whole entry): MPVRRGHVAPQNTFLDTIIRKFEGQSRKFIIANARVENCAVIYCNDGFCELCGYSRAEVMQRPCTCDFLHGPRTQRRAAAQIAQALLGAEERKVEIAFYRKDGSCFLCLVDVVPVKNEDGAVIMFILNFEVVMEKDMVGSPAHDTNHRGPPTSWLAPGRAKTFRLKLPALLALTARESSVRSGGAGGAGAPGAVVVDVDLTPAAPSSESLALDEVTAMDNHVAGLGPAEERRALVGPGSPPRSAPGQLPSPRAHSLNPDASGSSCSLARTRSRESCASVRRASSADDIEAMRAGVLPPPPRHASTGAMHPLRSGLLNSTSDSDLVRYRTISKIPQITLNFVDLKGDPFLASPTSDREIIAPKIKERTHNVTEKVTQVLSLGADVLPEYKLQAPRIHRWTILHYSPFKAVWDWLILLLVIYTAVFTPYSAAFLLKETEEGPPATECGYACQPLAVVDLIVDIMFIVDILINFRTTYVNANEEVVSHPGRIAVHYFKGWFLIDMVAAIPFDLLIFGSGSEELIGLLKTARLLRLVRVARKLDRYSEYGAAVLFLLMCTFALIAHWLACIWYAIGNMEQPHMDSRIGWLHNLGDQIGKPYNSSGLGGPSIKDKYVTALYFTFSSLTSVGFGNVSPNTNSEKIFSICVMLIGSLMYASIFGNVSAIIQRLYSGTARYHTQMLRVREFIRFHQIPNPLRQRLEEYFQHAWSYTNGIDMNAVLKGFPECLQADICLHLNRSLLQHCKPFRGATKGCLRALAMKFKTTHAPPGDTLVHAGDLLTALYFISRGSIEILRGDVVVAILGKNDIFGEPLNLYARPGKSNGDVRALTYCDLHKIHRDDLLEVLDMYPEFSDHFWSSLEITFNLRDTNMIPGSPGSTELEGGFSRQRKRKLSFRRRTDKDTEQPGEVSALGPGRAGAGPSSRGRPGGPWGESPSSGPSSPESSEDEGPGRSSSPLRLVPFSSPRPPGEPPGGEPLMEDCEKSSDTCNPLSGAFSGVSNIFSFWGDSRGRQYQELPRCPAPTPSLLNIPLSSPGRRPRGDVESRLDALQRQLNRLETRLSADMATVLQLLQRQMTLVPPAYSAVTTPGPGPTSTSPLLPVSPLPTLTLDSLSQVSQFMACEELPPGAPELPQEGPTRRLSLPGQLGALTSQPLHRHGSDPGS
# T3 sequence (P28223 whole entry): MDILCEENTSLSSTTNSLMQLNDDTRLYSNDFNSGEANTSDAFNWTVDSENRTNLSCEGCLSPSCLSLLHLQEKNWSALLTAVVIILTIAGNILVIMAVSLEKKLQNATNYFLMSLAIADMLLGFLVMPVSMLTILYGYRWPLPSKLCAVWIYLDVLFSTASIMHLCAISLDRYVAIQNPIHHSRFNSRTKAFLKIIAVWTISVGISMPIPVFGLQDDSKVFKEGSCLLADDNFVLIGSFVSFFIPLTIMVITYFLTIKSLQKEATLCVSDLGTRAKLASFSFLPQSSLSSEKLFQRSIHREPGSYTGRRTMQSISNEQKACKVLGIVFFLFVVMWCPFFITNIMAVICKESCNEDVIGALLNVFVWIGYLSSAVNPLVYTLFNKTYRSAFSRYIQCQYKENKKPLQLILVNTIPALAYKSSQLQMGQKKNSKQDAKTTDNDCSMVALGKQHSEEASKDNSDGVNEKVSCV
# T1 sequence (P08908 whole entry): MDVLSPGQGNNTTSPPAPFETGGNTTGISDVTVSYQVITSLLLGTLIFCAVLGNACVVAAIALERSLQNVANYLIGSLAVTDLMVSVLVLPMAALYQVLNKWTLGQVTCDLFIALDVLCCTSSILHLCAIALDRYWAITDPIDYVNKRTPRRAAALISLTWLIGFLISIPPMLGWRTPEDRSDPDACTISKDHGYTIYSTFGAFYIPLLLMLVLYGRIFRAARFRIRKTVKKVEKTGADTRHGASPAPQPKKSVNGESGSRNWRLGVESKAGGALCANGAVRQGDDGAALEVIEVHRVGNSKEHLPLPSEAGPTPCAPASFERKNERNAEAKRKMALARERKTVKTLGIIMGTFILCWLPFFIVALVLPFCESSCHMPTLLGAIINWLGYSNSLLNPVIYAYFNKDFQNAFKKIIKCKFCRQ
SMILES,Ki (human 5-HT1A receptor [1]),"Kp, uu, brain [2]",Ki (human D2 receptor),IC50 (hERG channel [3]),Metabolic stability in human hepatic microsome [4],EC50 (human 5-HT1A receptor [5]),Emax at 10 µM (human 5-HT1A receptor [5]),half-life [6],D2 Ki/5-HT1A Ki (human D2 receptor),D2 Ki/5-HT2A Ki (human D2 receptor),hERG inhibition IC50 (nmol/L)/5-HT1A Ki (nmol/L) (hERG channel [3]),hERG inhibition IC50 (nmol/L)/5-HT2A Ki (nmol/L) (hERG channel [3]),IC50 (human 5-HT2A receptor [7]),Ki (human 5-HT2A receptor [8]),NFR (P-gp (MDR1)),IC50 (hERG channel [9]),IC50 (human 5-HT2A receptor [7]; aequorin luminescence)
"COc1cc2c(cn1)C(=O)N(CCN1CCN(c3nsc4ccccc34)CC1)CC2 [Example 2, 2-{2-[4-(1,2-Benzoisothiazol-3-yl)piperazin-1-yl]ethyl}-6-methoxy-3,4-dihydro-2,7-naphthyridin-1(2H)-one]",0.03 nM,1.27,128 nM,2500 nM,0.22 mL/min/mg protein,0.18 nM,69%,,,,,,,,,,
"Cc1cc2c(cn1)C(=O)N(CCN1CCN(c3noc4ccccc34)CC1)CC2 [Example 3, 2-{2-[4-(1,2-Benzoisoxazol-3-yl)piperazin-1-yl]ethyl}-6-methyl-3,4-dihydro-2,7-naphthyridin-1(2H)-one]",2.7 nM,,1260 nM,7900 nM,<0.01 mL/min/mg protein,10.1 nM,69%,> 30 h,,,,,,,,,
"Cc1c2c(nn1C)CCN(CCN1CCC(c3noc4ccccc34)CC1)C2=O [Example 37, 5-{2-[4-(1,2-Benzoisoxazol-3-yl)piperidin-1-yl]ethyl}-2,3-dimethyl-2,5,6,7-tetrahydro-4H-pyrazolo[4,3-c]pyridin-4-one]",2.68 nM,,267 nM,1000 nM,0.017 mL/min/mg protein,35 nM,71%,8 h,,,,,,,,,
Cn1ccc2c1CCN(CCN1CCC(c3noc4ccccc34)CC1)C2=O [Example 60],13.7 nM,,260 nM,700 nM,0.018 mL/min/mg protein,43 nM,54%,,19,236,51,640,3.91 nM,1.1 nM,1.5,,
Cn1ncc2c1CCCN(CCN1CCN(c3noc4ccccc34)CC1)C2=O [Example 80],,,,15400 nM,0.012 mL/min/mg protein,,63%,10 h,,,,,55 nM,2.8 nM,,,
"Cc1ncc2c(n1)CCN(CCN1CCC(c3noc4ccccc34)CC1)C2=O [Example 88, 6-{2-[4-(1,2-Benzoisoxazol-3-yl)piperidin-1-yl]ethyl}-2-methyl-7,8-dihydropyrido[4,3-d]pyrimidin-5(6H)-one]",6.3 nM,,916 nM,5600 nM,<0.01 mL/min/mg protein,37 nM,49%,> 23 h,,,,,,,,,
Cc1nn(C)c2c1C(=O)N(CCN1CCC(c3noc4ccccc34)CC1)CCC2 [Example 91],0.57 nM,,103 nM,,<0.05 mL/min/mg protein,8.74 nM,46%,,,,,,,,,1800 nM,
Cc1nn(C)c2c1C(=O)N(CCN1CCN(c3noc4ccccc34)CC1)CCC2 [Example 92],5.19 nM,,738 nM,,0.065 mL/min/mg protein,76.2 nM,43%,,,,,,,,,> 10000 nM,
"Cn1ccc2c1CCCN(CCN1CCC(c3noc4ccccc34)CC1)C2=O [Example 103, 5-{2-[4-(1,2-Benzoisoxazol-3-yl)piperidin-1-yl]ethyl}-1-methyl-5,6,7,8-tetrahydropyrrolo[3,2-c]azepin-4(1H)-one]",0.47 nM,,129 nM,1400 nM,<0.01 mL/min/mg protein,5.8 nM,62%,> 45 h,,,,,,,,,
O=C1c2nc(Cl)ccc2CCN1CCN1CCC(c2noc3ccccc23)CC1 [Example 146],3.02 nM,,772 nM,300 nM,<0.05 mL/min/mg protein,6.07 nM,55%,,255.8,72.4,99,28,,10.7 nM,2.3,,199 nM
CCc1ccc2c(n1)C(=O)N(CCN1CCC(c3noc4ccccc34)CC1)CC2 [Example 185],3.26 nM,,1170 nM,700 nM,<0.05 mL/min/mg protein,95.3 nM,52%,,358.6,41.4,214,25,,28.3 nM,2.4,,68.7 nM
